According to patent publication US11925633B2, “Drug for preventing and/or treating dementia” (NATIONAL CEREBRAL AND CARDIOVASCULAR CENTER, priority 2016, dated 2024):
Like-named read-outs stand apart in the source and are kept apart here.

What was measured:
APP-SwDI transgenic mice [1] = test: Y-maze test (alternation response rate); assay type: in vivo, mouse; settings: 13-month-old mice, feed from 4-week-old to 13-month-old; test for 8 minutes
Procedure: The cilostazol-containing feed, the taxifolin-containing feed, and the feed containing cilostazol and taxifolin were administered from 4-week-old to 13-month-old. The concentration of cilostazol in the cilostazol-containing feed was 0.3 wt %, and the concentration of taxifolin in the taxifolin-containing feed was 3 wt %. The concentration of cilostazol and the concentration of taxifolin in the feed containing cilostazol and taxifolin were respectively 0.3 wt % and 3 wt %. All the APP-SwDI transgenic mice used were homozygous male mice. In the Y-maze test, according to the general practice method, the alternation response rate was measured from the results of the test for 8 minutes. […] FIG. 7 is a graph showing an average alternation response rate of the mice of each group. Error bars show standard error.

APP-SwDI transgenic mice [2] = test: Immunohistochemistry for Aβ deposition on the cerebral blood vessel wall (hippocampus region); assay type: in vivo, mouse; settings: 8-month-old mice, drug-containing feed from 4-week-old to 8-month-old; compared to APP-SwDI mice on normal feed
Procedure: The cilostazol-containing feed, the taxifolin-containing feed, and the feed containing cilostazol and taxifolin were administered from 4-week-old to 8-month-old. The concentration of cilostazol in the cilostazol-containing feed was 0.3 wt %, and the concentration of taxifolin in the taxifolin-containing feed was 3 wt %. The concentration of cilostazol and the concentration of taxifolin in the feed containing cilostazol and taxifolin were respectively 0.3 wt % and 3 wt %. All the APP-SwDI transgenic mice used were homozygous male mice. The 4-week-old APP-SwDI transgenic mice are considered to be in the initial stage of accumulation of Aβ in the brain blood vessel, i.e., the initial stage of cerebral amyloid angiopathy, and neuronal loss is considered to be not progressing much in this stage. The brain of an 8-month-old APP-SwDI transgenic mice was perfusion fixed using 4% para-formaldehyde, the removed brain was dehydration-treated for a whole day. A paraffin block of the fixed brain tissue was prepared, and the paraffin block was sliced in 6 microns by microtome. […] The hippocampus region was traced in a section which was cut 1 mm outside the midline, and the percentage of the Aβ accumulation area in the region of interest was measured by using image analysis software ImageJ (National Institutes of Health. USA). […]

APP-SwDI transgenic mice [3] = test: Carbon dioxide gas inhalation test (cerebral blood flow, laser speckle blood flow imager); assay type: in vivo, mouse; settings: 12-month-old mice; for cerebral blood flow increase rate after 5% CO2 supply: feed from 4-week-old to 12-month-old, compared to APP-SwDI mice on normal feed; for time course of the cerebral blood flow increase rate after 5% CO2 supply: measured for 5 min after start of 5% CO2; for significance of the difference in cerebral blood flow increase rate versus normal feed group (repeated measurement and variance analysis): versus APP-SwDI mice on normal feed
Procedure: Analysis was performed by using 12-month-old C57BL/6J mice administered with a normal feed (n=4), APP-SwDI transgenic mice administered with a normal feed (n=10), APP-SwDI transgenic mice administered with a cilostazol-containing feed (n=4), APP-SwDI transgenic mice administered with a taxifolin-containing feed (n=5), and APP-SwDI transgenic mice administered with a feed containing cilostazol and taxifolin (n=7), totaling 30 mice. The feeds containing cilostazol, taxifolin, or cilostazol and taxifolin were administered from 4-week-old to 12-month-old. The concentration of cilostazol in the cilostazol-containing feed was 0.3 wt % and the concentration of taxifolin in the taxifolin-containing feed was 3 wt %. All the APP-SwDI transgenic mice used were homozygous male mice. The mice were anesthetized by intraperitoneal injection of α-chloralose and urethane. Then, endotracheal intubation was performed and the baseline of the cerebral blood flow was measured. Thereafter, 5% CO2 was supplied, and the cerebral blood flow was sequentially measured for 5 min. Relative increase rate was measured from the changes in the cerebral blood flow between the baseline and after 5% CO2 supply. The cerebral blood flow was measured by a laser speckle blood flow imager (OZ-2, OMEGAWAVE, INC.). FIG. 2 is a graph showing mean of relative increase rate of the cerebral blood flow after supply of 5% CO2 in the mice of each group. […] Error bars show standard error.

[4] = Blood concentration after administration of the feed containing cilostazol and taxifolin
Procedure: (§1) In the “APP-SwDI transgenic mice administrated with a feed containing cilostazol and taxifolin (n=3)”, as mentioned above, the blood concentration of this mouse was measured after administration of the feed containing cilostazol and taxifolin.

APP-SwDI transgenic mice [5] = test: Survival curve (cumulative survival rate); assay type: in vivo, mouse; settings: observation within 500 days after birth; slaughter not included
From the text: 1, 2014 to Nov. 30, 2015, were used to plot and analyze a survival curve of the mice.

APP-SwDI transgenic mice [6] = test: Hair loss score (fighting); assay type: in vivo, mouse; settings: 13-month-old mice; compared to APP-SwDI mice on normal feed
From the text: Hair loss occurs when mice fight. Thus, the extent of hair loss of each mouse was described in 4 grades of Grade: 0-3 and taken as a hair loss score. Almost normal state is Grade: 0 and hair loss over nearly whole body is Grade: 3. Less than 50% of the whole body surface was classified as Grade: 1 and not less than 50% was classified as Grade: 2.
The information of mice was concealed and two evaluators independently evaluated the hair loss score. Mean of each evaluation was taken as the hair loss score of the mice.
Error bars show standard error.

APP-SwDI transgenic mice [7] = test: Water maze test (Morris water maze, with probe test); assay type: in vivo, mouse; settings: 8-month-old mice; for residence time in Zone-1 in the probe test (visuospatial memory): fifth day, platform removed, 60 seconds; for swimming time to reach the platform (visuospatial memory): first day to fourth day, 4 trials per day
Procedure: The cilostazol-containing feed, the taxifolin-containing feed, and the feed containing cilostazol and taxifolin were administered from 4-week-old to 8-month-old. The concentration of cilostazol in the cilostazol-containing feed was 0.3 wt %, and the concentration of taxifolin in the taxifolin-containing feed was 3 wt %. The concentration of cilostazol and the concentration of taxifolin in the feed containing cilostazol and taxifolin were respectively 0.3 wt % and 3 wt %. All the APP-SwDI transgenic mice used were homozygous male mice. The water maze test is a test for evaluating the visuospatial cognitive ability of mouse by utilizing the habit of avoiding water and escaping therefrom. The water maze used in this experiment was Morris water maze manufactured by Brain Science Idea, having a circular pool of a water tank entirely painted black with inner diameter 120 cm, wall height 30 cm. One transparent acrylic circular platform for escape with diameter 10 cm, height 10 cm was set at 30 cm from the center of the pool and 30 cm from the periphery. Clues such as poster, photograph and the like were arranged on the wall so that the mice could memorize various spatial arrangements in the surroundings, and the locations of these clues were always unchanged during the experiment. The pool was filled with water to a depth of 11 cm, and a platform was installed at about 1 cm below the water surface as in FIG. 3(A). In all tests, Zone-2 in FIG. 3(B) was set as a start position. Zone-1 to Zone-4 show quadrant regions in the circular pool. The mice were gently placed on the water surface while facing the wall of the pool so that they could not see the location of the platform. The tests were performed from the first day to the fourth day, 4 trials per day. In each trial, the total swimming distance and the time required for reaching the platform (swimming time) were measured. […] On the fifth day, the mice were made to swim for 60 seconds with the platform removed from the pool (probe test). In the test, the residence time in Zone-1 where the goal was placed from the first day to the fourth day was measured. […] Error bars show standard error. […] Error bars show standard error.

[8] = administration of cilostazol; cilostazol package insert; cited from earlier work
[9] = administration of cilostazol; non-patent documents 1, 2; cited from earlier work
[10] = mouse, in vivo
Procedure: as §1

APP-SwDI transgenic mice [11] = settings: compared to APP-SwDI mice on control feed; non-patent document 3; cited from earlier work
amyloid beta = settings: administration of cilostazol; non-patent documents 1, 2; cited from earlier work

SMILES | alternation response rate (working memory) (APP-SwDI transgenic mice [1]) | intracerebral Aβ accumulation amount (APP-SwDI transgenic mice [2]) | cerebral blood flow increase rate after 5% CO2 supply (APP-SwDI transgenic mice [3]) | time course of the cerebral blood flow increase rate after 5% CO2 supply (APP-SwDI transgenic mice [3]) | significance of the difference in cerebral blood flow increase rate versus normal feed group (repeated measurement and variance analysis) (APP-SwDI transgenic mice [3]) | presence in the blood (compound or its metabolite) [4] | death of mice (cumulative survival rate) (APP-SwDI transgenic mice [5]) | hair loss score (Grade 0-3) (APP-SwDI transgenic mice [6]) | residence time in Zone-1 in the probe test (visuospatial memory) (APP-SwDI transgenic mice [7]) | swimming time to reach the platform (visuospatial memory) (APP-SwDI transgenic mice [7]) | cerebral blood flow in the vertebral artery, internal carotid artery, cerebral cortex, hypothalamus and the like [8] | reduction of cognitive function [9] | presence in the blood (compound or its metabolite) [10] | alternation response in the Y-maze test (APP-SwDI transgenic mice [11]) | intracerebral accumulation of amyloid beta (amyloid beta)
O=C1c2c(O)cc(O)cc2O[C@H](c2ccc(O)c(O)c2)[C@H]1O [taxifolin] | significant improvement was not observed | significant decrease | increased | rapidly increased after 5% CO2 supply | a significant difference was absent | detected in the blood | died clearly more than other mice | clearly severe hair loss | the same results as in the C57BL/6J mouse | the same results as in the C57BL/6J mouse |  |  |  |  | 
O=C1CCc2cc(OCCCCc3nnnn3C3CCCCC3)ccc2N1 [cilostazol, 6-[4-(1-cyclohexyl-1H-tetrazol-5-yl)butoxy]-3,4-dihydrocarbostyril] |  | significant decrease | increased | increased after a certain period of time after 5% CO2 supply | a significant difference was absent |  |  |  | visuospatial memory disorder improving effect of cilostazol was considered to be limited | visuospatial memory disorder improving effect of cilostazol was considered to be limited | increases | suppressed | detected in the blood | increased | suppressed
